The values that follow come from patent US20240132534A1, “OLIGONUCLEOTIDE PRIMER WITH AN ACYCLIC NUCLEOSIDE STRUCTURE FOR INITIAL CAPPING” (JIANGSU SYNTHGENE BIOTECHNOLOGY CO., LTD., priority 2022, published 2024).

Assay [1] addresses T1, T7 RNA polymerase (Escherichia phage T7, UniProt P00573). The assay is described as follows: In vitro transcription yield of mRNA by co-transcriptional capping. Type of assay: biochemical. The note with it: for Yield: mRNA from 20 μl IVT, 1 μg template, 37° C. 2 h, Nanodrop One; for Increased yield relative to Comparative Example 1: mRNA IVT yield vs 50 μg of Comparative Example 1. As for the experimental part: (§1) Test Example 1: Determination of in vitro transcription yield and capping efficiency of mRNA
(§2) In vitro synthesis of mRNA was performed using the oligonucleotide primer with an acyclic nucleoside structure for initial capping by the co-transcriptional capping method. First, the plasmid was digested with NotI overnight at […]. DNA template was extracted to synthesize mRNA by in vitro transcription. The oligonucleotide primers with an acyclic nucleoside structure for initial capping in Examples 1-4, 6, 7, and 11 and the capping analogs in Comparative Examples 1-2 were used as cap structures respectively.
Note: During the experiment, the volume of materials required for the system was first calculated, and then the sample was added. The system was firstly added with sterile enzyme-free water, then added with 10X buffer, NTPs, and cap structure subsequently, mixed, centrifuged gently, then added with nuclease inhibitor, inorganic pyrophosphatase, T7 RNA polymerase, and linearized DNA template, mixed thoroughly, centrifuged gently, and incubated at 37° C. After 2 h, the system was added with 1U of DNase I and incubated at 37° C. for another 30 min to remove the DNA template. Then RNA was purified, usually by the magnetic bead purification method. The purified mRNA was dissolved in sterile enzyme-free water, and then quantitatively measured using Nanodrop One.

In the next assay the target is T7 transcription (Escherichia phage T7, UniProt P00573). The note with it: cited from earlier work.
Chain of T7 transcription (P00573 whole entry): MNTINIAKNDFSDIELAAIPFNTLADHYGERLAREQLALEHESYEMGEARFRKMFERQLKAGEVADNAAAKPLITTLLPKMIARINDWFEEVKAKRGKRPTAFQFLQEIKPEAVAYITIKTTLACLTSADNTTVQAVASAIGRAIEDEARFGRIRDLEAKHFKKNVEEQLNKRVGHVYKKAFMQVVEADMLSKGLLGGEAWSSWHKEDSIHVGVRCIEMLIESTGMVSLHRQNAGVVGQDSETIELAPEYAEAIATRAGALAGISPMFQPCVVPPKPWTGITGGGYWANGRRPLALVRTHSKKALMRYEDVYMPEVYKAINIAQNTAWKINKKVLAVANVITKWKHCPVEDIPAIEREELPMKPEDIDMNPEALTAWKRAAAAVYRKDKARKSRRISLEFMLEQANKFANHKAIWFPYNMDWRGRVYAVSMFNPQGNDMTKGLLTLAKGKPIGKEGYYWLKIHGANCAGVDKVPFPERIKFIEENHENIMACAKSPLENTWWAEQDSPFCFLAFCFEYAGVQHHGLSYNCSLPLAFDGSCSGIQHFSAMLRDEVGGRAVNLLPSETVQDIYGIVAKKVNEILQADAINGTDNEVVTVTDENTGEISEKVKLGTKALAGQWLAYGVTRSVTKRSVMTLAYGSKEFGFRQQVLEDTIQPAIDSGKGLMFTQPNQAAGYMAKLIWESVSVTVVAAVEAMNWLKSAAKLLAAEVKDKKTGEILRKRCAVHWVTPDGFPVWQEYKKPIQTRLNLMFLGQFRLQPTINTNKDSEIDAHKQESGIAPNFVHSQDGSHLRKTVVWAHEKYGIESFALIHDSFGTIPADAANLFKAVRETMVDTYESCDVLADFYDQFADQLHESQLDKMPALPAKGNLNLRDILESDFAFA
For assay [2], the target named is T1, T7 RNA polymerase. The assay is described as follows: IVT capping rate of mRNA by LC-MS. It is filed as biochemical. The note with it: for Capping rate: LC-MS after RNase H cleavage; for Increased capping rate relative to Comparative Example 1: vs capping rate 93.5% of Comparative Example 1. As for the experimental part: as §1, §2
Liquid chromatography mass spectrometry (LC-MS) was used to determine the IVT capping rate of mRNA with different initial cap analogs. First, it is necessary to design a labeled DNA probe that matches the starting base of the transcript product mRNA, and usually the label is biotin. The streptavidin-labeled magnetic beads were washed, and incubated with the synthesized DNA probe, mRNA and 10×RNase H reaction buffer at room temperature for 30 min. The mixture was mixed slowly while incubating, then added with 20 μl of RNase. H (5U/μl), incubated at 37° C. for 3 h, and mixed thoroughly every half hour. After the incubation was completed, the magnetic beads were washed and added with 100 μL of 75% methanol heated to 80° C. The mixture was heated to 80° C. on a hot plate and kept for 3 min, and then placed on a magnetic stand. The supernatant was collected and dried at room temperature for 45 min to 10 μl using an evaporative centrifuge. The sample was then resuspended in 50 μl of 100 μM EDTA/1% MeOH, which was ready for LC-MS analysis to determine RNA capping during the transcription reaction. Since there was a significant difference in molecular weight between capped and uncapped bases, the capping rate of mRNA transcription initiated by different cap analogs can be determined through the difference in molecular mass.

Another assay concerns the target T2, RIG-I (Homo sapiens, UniProt O95786).
T2 construct: endogenous in cells; host or cells: 293T cells
T2 sequence (O95786 1-925): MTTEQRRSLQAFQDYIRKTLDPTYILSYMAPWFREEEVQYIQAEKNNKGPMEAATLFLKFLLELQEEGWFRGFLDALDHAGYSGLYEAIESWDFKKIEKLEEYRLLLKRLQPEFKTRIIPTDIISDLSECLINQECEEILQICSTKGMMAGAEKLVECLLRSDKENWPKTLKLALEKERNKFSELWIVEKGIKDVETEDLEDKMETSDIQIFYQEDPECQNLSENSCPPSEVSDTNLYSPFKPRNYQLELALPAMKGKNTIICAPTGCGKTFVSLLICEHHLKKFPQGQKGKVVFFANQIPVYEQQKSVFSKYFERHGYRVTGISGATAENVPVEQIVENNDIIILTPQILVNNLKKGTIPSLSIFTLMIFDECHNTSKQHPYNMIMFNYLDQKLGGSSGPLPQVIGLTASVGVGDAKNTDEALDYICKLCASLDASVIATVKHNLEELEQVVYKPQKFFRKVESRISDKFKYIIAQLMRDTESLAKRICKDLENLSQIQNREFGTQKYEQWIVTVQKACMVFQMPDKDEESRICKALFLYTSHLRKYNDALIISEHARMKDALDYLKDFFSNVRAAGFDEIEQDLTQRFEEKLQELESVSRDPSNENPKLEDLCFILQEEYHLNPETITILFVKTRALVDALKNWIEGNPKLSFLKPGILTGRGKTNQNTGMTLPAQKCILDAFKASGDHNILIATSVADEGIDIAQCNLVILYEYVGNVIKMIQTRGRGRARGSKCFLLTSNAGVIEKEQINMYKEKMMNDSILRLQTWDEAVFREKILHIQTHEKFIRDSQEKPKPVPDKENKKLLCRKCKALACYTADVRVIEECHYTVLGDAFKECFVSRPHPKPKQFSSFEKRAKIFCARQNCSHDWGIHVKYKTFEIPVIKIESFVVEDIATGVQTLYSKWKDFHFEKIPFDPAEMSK
As to the kind of experiment: Binding ability of mRNA to RIG-I (RNA co-immunoprecipitation, RT-qPCR) in transfected 293T cells. It is filed as cell-based. The settings on record: eGFP mRNA made with the cap analog, 24 h after transfection. An excerpt:
Test Example 2: Determination of the binding ability of mRNA to RIG I
RIG-I mainly includes two repeated caspase activation and recruitment domains (CARD) at the N-terminus, a helicase structure in the middle and a RNA domain at the C-terminus. The overexpression of the N-terminal CARD domain of RIG-I can promote cells to secrete type I interferon (IFN) even in the absence of viral infection. Therefore, this domain is mainly responsible for transmitting signals downstream. RIG-I can recognize exogenous RNA, mediate the production of cytokines and chemokines, and recruit innate immune cells to trigger immune responses. mRNA with high immunogenicity is easily recognized and combined by RIG. Thus, mRNA with strong binding ability to RIG-1 has high immunogenicity.
In this study, 293T cells were transfected with the eGFP mRNAs prepared by in vitro transcription initiated by the oligonucleotide primers with an acyclic nucleoside structure for initial capping in Examples 1-4, 6, 7, and 11 and the cap analogs in Comparative Examples 1-2, and collected 24 hours later. The intracellular protein RIG I and RNA bound thereto were co-immunoprecipitated by the RNA co-immunoprecipitation method. Finally, reverse transcription and real-time quantitative PCR were performed on these mRNAs.
The specific cell culture conditions were the same as above. Cells were collected 24 hours after transfection. First, a fixing solution was added for incubation. After 10 min, glycine solution of an appropriate concentration was added to terminate the reaction, and cells were collected. The collected cells were lysed using the lysis solution, centrifuged at 12,000 rpm and 4° C. for 10 min. The supernatant was collected and incubated with an appropriate amount of RIG-I or IgG antibody on a shaker at 4° C. overnight. Then 20 μl of Protein A/G magnetic beads were added, incubated at 4° C. for 4 h, and washed on a magnetic stand. After washing was completed, RNA was extracted and used for subsequent RT-qPCR to determine the expression results.
Background: In qPCR the cycle at which signal appears reflects the starting amount.

T1 sequence (P00573 whole entry): as the sequence (P00573 whole entry) above

Molecule `COC1C(OP(=O)(O)OC[C@H]2O[C@@H](n3cnc4c(=O)[nH]c(N)nc43)C(O)C2O)[C@@H](COP(=O)(O)OP(=O)(O)OP(=O)([O-])OC[C@H]2O[C@@H](n3c[n+](C)c4c(=O)[nH]c(N)nc43)C(O)C2O)O[C@H]1n1cnc2c(N)ncnc21` (stereo in doubt) [Comparative Example 1, ^m7GpppA2′OMepG, reference compound] displayed a Yield on T7 RNA polymerase [1] of 50 µg. For the same molecule, on T7 transcription (per milliliter of transcription reaction), the “Capped RNA prepared per milliliter of transcription reaction system” value was 4 mg. Also, the “Immunogenicity of transcription products” value at T7 transcription (vs ARCA) is “lower than that of ARCA”. On T7 RNA polymerase [2], this molecule returned a Capping rate of 93.5%. Further, at RIG-I, the “Relative binding ability to RIG-I” value turned out to be 3.1±0.51.

As for `COC[C@@H](COP(=O)(O)OP(=O)([O-])OP(=O)(O)OC[C@H]1O[C@@H](n2cnc3c(N)ncnc32)C(OC)C1OP(=O)(O)OC[C@H]1O[C@@H](n2cnc3c(=O)[nH]c(N)nc32)C(O)C1O)O[C@H](CO)n1c[n+](C)c2c(=O)[nH]c(N)nc21` (stereo in doubt) [Example 11], at T7 RNA polymerase [1], the “Increased yield relative to Comparative Example 1” value turned out to be 42% and the Yield was 71 µg. Moreover, at T7 RNA polymerase [2], the Capping rate amounted to 96.8% and the “Increased capping rate relative to Comparative Example 1” value turned out to be 3.3%. In addition, on RIG-I, the “Relative binding ability to RIG-I” value was determined as 1.5±0.25.

Regarding `COC1C(OP(=O)(O)OC[C@H](CO)O[C@H](CO)n2cnc3c(=O)[nH]c(N)nc32)[C@@H](COP(=O)(O)OP(=O)(O)OP(=O)([O-])OC[C@H]2O[C@@H](n3c[n+](C)c4c(=O)[nH]c(N)nc43)C(O)C2O)O[C@H]1n1cnc2c(N)ncnc21` (some centres unmarked) [Comparative Example 2, reference compound], the Yield at T7 RNA polymerase [1] is 41 µg. This molecule also registered a Capping rate on T7 RNA polymerase [2] of 90.1%. For the same molecule, the “Relative binding ability to RIG-I” value on RIG-I is recorded as 4.0 ± 0.31.

For the molecule `CO[C@H]1C(OP(=O)(O)OC[C@H]2O[C@@H](n3cnc4c(=O)[nH]c(N)nc43)[C@@H](O)C2O)[C@@H](COP(=O)(O)OP(=O)([O-])OP(=O)(O)OC[C@H](CO)O[C@H](CO)n2c[n+](C)c3c(=O)[nH]c(N)nc32)O[C@H]1n1cnc2c(N)ncnc21` (some centres unmarked) [Example 1], at T7 RNA polymerase [1], the “Increased yield relative to Comparative Example 1” value worked out at 44% and the Yield turned out to be 72 µg. Besides, at T7 RNA polymerase [2], the Capping rate came to 99.3% and the “Increased capping rate relative to Comparative Example 1” value worked out at 5.8%.

Take `CO[C@H]1C(OP(=O)(O)OC[C@H](CO)O[C@H](CO)n2cnc3c(=O)[nH]c(N)nc32)[C@@H](COP(=O)(O)OP(=O)([O-])OP(=O)(O)OC[C@H](CO)O[C@H](CO)n2c[n+](C)c3c(=O)[nH]c(N)nc32)O[C@H]1n1cnc2c(N)ncnc21` (some centres unmarked) [Example 2]: the Yield on T7 RNA polymerase [1] came to 58 µg. On T7 RNA polymerase [2], the Capping rate is reported as 96.5% and the “Increased capping rate relative to Comparative Example 1” value is 3%. Besides, the “Relative binding ability to RIG-I” value on RIG-I amounted to 2.4 ± 0.34.

The molecule `COC[C@@H](O[C@@H](COP(=O)(O)OC[C@H](CO)O[C@H](CO)n1cnc2c(=O)[nH]c(N)nc21)COP(=O)(O)OP(=O)([O-])OP(=O)(O)OC[C@H](CO)O[C@H](CO)n1c[n+](C)c2c(=O)[nH]c(N)nc21)n1cnc2c(N)ncnc21` [Example 4] returned a Yield at T7 RNA polymerase [1] of 45 µg. Also, the Capping rate on T7 RNA polymerase [2] is listed as 93.3%. Also, the “Relative binding ability to RIG-I” value at RIG-I was found to be 2.8 ± 0.62.

For `COCCOC1C(OP(=O)(O)OC[C@H]2O[C@@H](n3cnc4c(=O)[nH]c(N)nc43)C(O)C2O)[C@@H](COP(=O)(O)OP(=O)(O)OP(=O)([O-])OC[C@H](CO)O[C@H](CO)n2c[n+](C)c3c(=O)[nH]c(N)nc32)O[C@H]1n1cnc2c(N)ncnc21` (some centres unmarked) [Example 6], the Yield at T7 RNA polymerase [1] came to 44 µg. This molecule also gave a Capping rate on T7 RNA polymerase [2] of 95.2%. Moreover, the “Relative binding ability to RIG-I” value at RIG-I is 1.4±0.32.

`C[n+]1cn([C@@H](CO)O[C@@H](CO)COP(=O)([O-])OP(=O)(O)OP(=O)(O)OC[C@]23COC(C2OP(=O)(O)OC[C@H]2O[C@@H](n4cnc5c(=O)[nH]c(N)nc54)C(O)C2O)[C@H](n2cnc4c(N)ncnc42)O3)c2nc(N)[nH]c(=O)c21` (some centres unmarked) [Example 7]: at T7 RNA polymerase [1], the “Increased yield relative to Comparative Example 1” value is on record as 36% and the Yield is 68 µg. Also, on T7 RNA polymerase [2], the Capping rate is reported as 97.6% and the “Increased capping rate relative to Comparative Example 1” value is listed as 4.1%. Further, the “Relative binding ability to RIG-I” value at RIG-I was found to be 2.1 ± 0.21.
